# According to US20070010671A1, “Novel quinazoline derivatives and methods of treatment related to the use thereof” (priority 2003, published 2007):
# Molecular target: MCH receptor (Homo sapiens, UniProt Q99705)
# Assay: High throughput functional screening FLIPR/FDSS6000: inhibition of MCH-evoked intracellular Ca2+ changes
# Assay type: cell-based
# Settings: class by percent of control at 10^-7 M or IC50
# Procedure, shortened: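 Antagonism was measured as inhibition of calcium responses to 50 nM MCH, monitored 290 s at ex 488/em 530 nm on FLIPR or FDSS6000. Beforehand, cells bearing a constitutively active MCH receptor received Fluo4-AM (4 μM, 1 h, 37 °C) with probenecid, and test compound for 3 min.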
row,SMILES,class
1,CN(C)c1nc(N[C@H]2CC[C@@H](NC(=S)Nc3cc(C(F)(F)F)ccc3F)CC2)nc2ccccc12 [compound 217],3 (Class 3: The value of percent of control at 10^−7 M was more than 60% or the value of IC50 was more than 200 nM.)
2,CN(C)c1nc(N[C@H]2CC[C@@H](NC(=S)Nc3ccccc3F)CC2)nc2ccccc12 [compound 218],3 (Class 3: The value of percent of control at 10^−7 M was more than 60% or the value of IC50 was more than 200 nM.)
3,CN(C)c1nc(N[C@H]2CC[C@@H](NC(=S)Nc3ccccc3I)CC2)nc2ccccc12 [compound 219],2 (Class 2: The value of percent of control at 10^−7 M was from 40% to 60% or the value of IC50 was from 50 nM to 200 nM.)
4,"COc1cc([N+](=O)[O-])ccc1NC(=S)N[C@H]1CC[C@@H](Nc2nc(N(C)C)c3ccccc3n2)CC1 [compound 220, N-(cis-4-{[4-(dimethylamino)quinazolin-2-yl]amino}cyclohexyl)-N′-(2-methoxy-4-nitrophenyl)thiourea]",1 (Class 1: The value of percent of control at 10^−7 M was less than 40% or the value of IC50 was less than 50 nM.)
5,"COc1ccc(C)cc1NC(=S)N[C@H]1CC[C@@H](Nc2nc(N(C)C)c3ccccc3n2)CC1 [compound 221, N-(cis-4-{[4-(dimethylamino)quinazolin-2-yl]amino}cyclohexyl)-N′-(2-methoxy-5-methylphenyl)thiourea]",1 (Class 1: The value of percent of control at 10^−7 M was less than 40% or the value of IC50 was less than 50 nM.)
6,CN(C)c1nc(N[C@H]2CC[C@@H](NC(=S)Nc3cccc(SC(F)(F)F)c3)CC2)nc2ccccc12 [compound 222],3 (Class 3: The value of percent of control at 10^−7 M was more than 60% or the value of IC50 was more than 200 nM.)
7,CN(C)c1nc(N[C@H]2CC[C@@H](NC(=S)Nc3cc(Cl)cc(Cl)c3)CC2)nc2ccccc12 [compound 223],3 (Class 3: The value of percent of control at 10^−7 M was more than 60% or the value of IC50 was more than 200 nM.)
8,CN(C)c1nc(N[C@H]2CC[C@@H](NC(=S)Nc3cc(F)cc(F)c3)CC2)nc2ccccc12 [compound 224],3 (Class 3: The value of percent of control at 10^−7 M was more than 60% or the value of IC50 was more than 200 nM.)
9,CN(C)c1nc(N[C@H]2CC[C@@H](NC(=S)Nc3cccc(C#N)c3)CC2)nc2ccccc12 [compound 225],3 (Class 3: The value of percent of control at 10^−7 M was more than 60% or the value of IC50 was more than 200 nM.)
10,CN(C)c1nc(N[C@H]2CC[C@@H](NC(=S)Nc3cccc(F)c3)CC2)nc2ccccc12 [compound 226],3 (Class 3: The value of percent of control at 10^−7 M was more than 60% or the value of IC50 was more than 200 nM.)
11,CN(C)c1nc(N[C@H]2CC[C@@H](NC(=S)Nc3cccc(I)c3)CC2)nc2ccccc12 [compound 227],2 (Class 2: The value of percent of control at 10^−7 M was from 40% to 60% or the value of IC50 was from 50 nM to 200 nM.)
12,"COc1cccc(NC(=S)N[C@H]2CC[C@@H](Nc3nc(N(C)C)c4ccccc4n3)CC2)c1 [compound 228, N-(cis-4-{[4-(dimethylamino)quinazolin-2-yl]amino}cyclohexyl)-N′-(3-methoxyphenyl)thiourea]",2 (Class 2: The value of percent of control at 10^−7 M was from 40% to 60% or the value of IC50 was from 50 nM to 200 nM.)
13,"CN(C)c1nc(N[C@H]2CC[C@@H](NC(=S)Nc3ccc(OC(F)F)cc3)CC2)nc2ccccc12 [compound 229, N-[4-(difluoromethoxy)phenyl]-N′-(cis-4-{[4-(dimethylamino)quinazolin-2-yl]amino}cyclohexyl)thiourea]",2 (Class 2: The value of percent of control at 10^−7 M was from 40% to 60% or the value of IC50 was from 50 nM to 200 nM.)
14,CN(C)c1nc(N[C@H]2CC[C@@H](NC(=S)Nc3ccc(OC(F)(F)F)cc3)CC2)nc2ccccc12 [compound 230],3 (Class 3: The value of percent of control at 10^−7 M was more than 60% or the value of IC50 was more than 200 nM.)
15,"CN(C)c1nc(N[C@H]2CC[C@@H](NC(=S)Nc3ccc(C(F)(F)F)cc3)CC2)nc2ccccc12 [compound 231, N-(cis-4-{[4-(dimethylamino)quinazolin-2-yl]amino}cyclohexyl)-N′-[4-(trifluoromethyl)phenyl]thiourea]",2 (Class 2: The value of percent of control at 10^−7 M was from 40% to 60% or the value of IC50 was from 50 nM to 200 nM.)
16,CN(C)c1nc(N[C@H]2CC[C@@H](NC(=S)Nc3ccc(SC(F)(F)F)cc3)CC2)nc2ccccc12 [compound 232],3 (Class 3: The value of percent of control at 10^−7 M was more than 60% or the value of IC50 was more than 200 nM.)
17,CN(C)c1nc(N[C@H]2CC[C@@H](NC(=S)Nc3ccc(Br)cc3Cl)CC2)nc2ccccc12 [compound 233],1 (Class 1: The value of percent of control at 10^−7 M was less than 40% or the value of IC50 was less than 50 nM.)
18,CN(C)c1nc(N[C@H]2CC[C@@H](NC(=S)Nc3ccc(Br)cc3F)CC2)nc2ccccc12 [compound 234],3 (Class 3: The value of percent of control at 10^−7 M was more than 60% or the value of IC50 was more than 200 nM.)

row,SMILES,class
1,CN(C)c1nc(N[C@H]2CC[C@@H](NC(=S)Nc3ccc(Cl)c(C(F)(F)F)c3)CC2)nc2ccccc12 [compound 235],3 (Class 3: The value of percent of control at 10^−7 M was more than 60% or the value of IC50 was more than 200 nM.)
2,CN(C)c1nc(N[C@H]2CC[C@@H](NC(=S)Nc3ccc(F)c(C(F)(F)F)c3)CC2)nc2ccccc12 [compound 236],3 (Class 3: The value of percent of control at 10^−7 M was more than 60% or the value of IC50 was more than 200 nM.)
3,CN(C)c1nc(N[C@H]2CC[C@@H](NC(=S)Nc3ccc(I)cc3)CC2)nc2ccccc12 [compound 237],1 (Class 1: The value of percent of control at 10^−7 M was less than 40% or the value of IC50 was less than 50 nM.)
4,Cc1ccc(Cl)cc1NC(=S)N[C@H]1CC[C@@H](Nc2nc(N(C)C)c3ccccc3n2)CC1 [compound 238],2 (Class 2: The value of percent of control at 10^−7 M was from 40% to 60% or the value of IC50 was from 50 nM to 200 nM.)
5,CN(C)c1nc(N[C@H]2CC[C@@H](NC(=S)NC3C[C@@H]4CC[C@H]3C4)CC2)nc2ccccc12 (stereo partly drawn) [compound 239],2 (Class 2: The value of percent of control at 10^−7 M was from 40% to 60% or the value of IC50 was from 50 nM to 200 nM.)
6,CN(C)c1nc(N[C@H]2CC[C@@H](NC(=S)Nc3ccc(NC(=O)OC(C)(C)C)cc3)CC2)nc2ccccc12 [compound 240],3 (Class 3: The value of percent of control at 10^−7 M was more than 60% or the value of IC50 was more than 200 nM.)
7,COc1ccc(CCNC(=S)N[C@H]2CC[C@@H](Nc3nc(N(C)C)c4ccccc4n3)CC2)cc1OC [compound 241],3 (Class 3: The value of percent of control at 10^−7 M was more than 60% or the value of IC50 was more than 200 nM.)
8,CN(C)c1nc(N[C@H]2CC[C@@H](NC(=S)NCCc3ccc(Cl)cc3)CC2)nc2ccccc12 [compound 242],2 (Class 2: The value of percent of control at 10^−7 M was from 40% to 60% or the value of IC50 was from 50 nM to 200 nM.)
9,CN(C)c1nc(N[C@H]2CC[C@@H](NC(=S)Nc3cc(Cl)c(Cl)c(Cl)c3Cl)CC2)nc2ccccc12 [compound 243],3 (Class 3: The value of percent of control at 10^−7 M was more than 60% or the value of IC50 was more than 200 nM.)
10,CN(C)c1nc(N[C@H]2CC[C@@H](NC(=S)Nc3cc(Cl)c(Cl)cc3Cl)CC2)nc2ccccc12 [compound 244],3 (Class 3: The value of percent of control at 10^−7 M was more than 60% or the value of IC50 was more than 200 nM.)
11,"CN(C)c1nc(N[C@H]2CC[C@@H](NC(=S)Nc3c(Cl)cc(Cl)cc3Cl)CC2)nc2ccccc12 [compound 246, N-(cis-4-{[4-(dimethylamino)quinazolin-2-yl]amino}cyclohexyl)-N′-(2,4,6-trichlorophenyl)thiourea]",1 (Class 1: The value of percent of control at 10^−7 M was less than 40% or the value of IC50 was less than 50 nM.)
12,CN(C)c1nc(N[C@H]2CC[C@@H](NC(=S)Nc3c(F)cc(F)cc3F)CC2)nc2ccccc12 [compound 247],3 (Class 3: The value of percent of control at 10^−7 M was more than 60% or the value of IC50 was more than 200 nM.)
13,"Cc1cc(C)c(NC(=S)N[C@H]2CC[C@@H](Nc3nc(N(C)C)c4ccccc4n3)CC2)c(C)c1 [compound 248, N-(cis-4-{[4-(dimethylamino)quinazolin-2-yl]amino}cyclohexyl)-N′-mesitylthiourea]",1 (Class 1: The value of percent of control at 10^−7 M was less than 40% or the value of IC50 was less than 50 nM.)
14,"Cc1ccc(NC(=S)N[C@H]2CC[C@@H](Nc3nc(N(C)C)c4ccccc4n3)CC2)c(C)c1 [compound 249, N-(cis-4-{[4-(dimethylamino)quinazolin-2-yl]amino}cyclohexyl)-N′-(2,4-dimethylphenyl)thiourea]",1 (Class 1: The value of percent of control at 10^−7 M was less than 40% or the value of IC50 was less than 50 nM.)
15,"CCc1cccc(CC)c1NC(=S)N[C@H]1CC[C@@H](Nc2nc(N(C)C)c3ccccc3n2)CC1 [compound 250, N-(2,6-diethylphenyl)-N′-(cis-4-{[4-(dimethylamino)quinazolin-2-yl]amino}cyclohexyl)thiourea]",1 (Class 1: The value of percent of control at 10^−7 M was less than 40% or the value of IC50 was less than 50 nM.)
16,CC(C)c1cccc(C(C)C)c1NC(=S)N[C@H]1CC[C@@H](Nc2nc(N(C)C)c3ccccc3n2)CC1 [compound 251],2 (Class 2: The value of percent of control at 10^−7 M was from 40% to 60% or the value of IC50 was from 50 nM to 200 nM.)
17,Cc1ccc(NC(=S)N[C@H]2CC[C@@H](Nc3nc(N(C)C)c4ccccc4n3)CC2)c(Br)c1 [compound 252],1 (Class 1: The value of percent of control at 10^−7 M was less than 40% or the value of IC50 was less than 50 nM.)
18,CN(C)c1nc(N[C@H]2CC[C@@H](NC(=S)Nc3cc(C(F)(F)F)ccc3Cl)CC2)nc2ccccc12 [compound 253],3 (Class 3: The value of percent of control at 10^−7 M was more than 60% or the value of IC50 was more than 200 nM.)
